Test results from ChEMBL document CHEMBL5500343, “Activity refinement of aryl amino acetamides that target the P. falciparum STAR-related lipid transfer 1 protein” (Eur J Med Chem, 2024).
≈ marks a conversion by molar mass, not a printed value. Blank lines part the entries; values can stand above or below the compound they belong to. Calls of active or inactive are those of the source. The calls are words filed in the database; no cut-off is given here.

Columns and labels:
[1] = Drug concentration in Swiss mouse plasma at 50 mg/kg,po administration measured after 12 hrs by LC-MS/MS analysis; format: ADME, organism-based; conditions: in vivo
Plasmodium berghei = test: Antimalarial activity against Plasmodium berghei ANKA infected in mouse assessed as reduction of parasitaemia at 50 mg/kg,po bid administrated for 72 hrs and measured after 24 hrs post last dose by Giemsa staining based microscopic analysis; format: functional, organism-based; conditions: time 96.0 hrs
[2] = Binding affinity to recombinant Plasmodium falciparum START1 assessed as dissociation constant by isothermal titration calorimetry
Plasmodium falciparum [3] = test: Binding affinity to recombinant Plasmodium falciparum START1 assessed as change in enthalpy at 10 uM by isothermal titration calorimetry
[4] = Intrinsic clearance in human liver microsomes at 1 uM incubated upto 60 mins in presence of NADPH by LC-MS/MS analysis; format: ADME, Microsome; conditions: read-out: CLH
Plasmodium falciparum [5] = test: Binding affinity to recombinant Plasmodium falciparum START1 assessed as change in entropy at 10 uM by isothermal titration calorimetry
[6] = Kinetic aqueous solubility of the compound in PBS at pH 7.4 incubated for 2 hr under shaking condition by shake flask based UV reader plate analysis; format: physicochemical; conditions: read-out: Kinetic_solubility
[7] = Intrinsic clearance in rat hepatocyte measured per 10^6 cells at 1 uM incubated upto 90 mins by LC-MS/MS analysis; format: ADME, cell-based; conditions: rat hepatocytes, read-out: CLH
[8] = Apparent half life in Swiss mouse at 50 mg/kg,po administration measured for 4 to 24 hrs by LC-MS/MS analysis; format: ADME, organism-based; conditions: in vivo, time 4-24 hrs, read-out: t1/2(app) (converted)
[9] = Drug concentration in Swiss mouse plasma at 50 mg/kg,po administration measured upto 24 hrs by LC-MS/MS analysis; format: ADME, organism-based; conditions: in vivo
[10] = Toxicity in mouse infected with Plasmodium berghei ANKA assessed as change in body weight at 50 mg/kg,po bid administrated for 72 hrs and measured after 24 hrs post last dose; format: organism-based; conditions: in vivo
Plasmodium falciparum [11] = test: Antimalarial activity against asexual blood stage Plasmodium falciparum 3D7 assessed as reduction in parasite growth incubated for 72 hrs by LDH assay; format: functional, organism-based; conditions: 3D7, 72 h
[12] = Toxicity in Swiss mouse at 50 mg/kg,po administration measured upto 24 hrs by LC-MS/MS analysis; format: organism-based; conditions: in vivo
[13] = Lipophilicity, LogD of compound in 1-Octanol and PBS at pH 7.4 at 7.5 uM incubated for 2 hrs shake flask method based LC-MS/MS analysis; format: physicochemical; conditions: 1-octanol/PBS
[14] = Drug concentration in Swiss mouse plasma at 50 mg/kg,po administration measured after 15 mins by LC-MS/MS analysis; format: ADME, organism-based
HepG2 = test: Cytotoxicity against human HepG2 cells assessed as reduction in cell viability incubated for 48 hrs by Cell Titer-Glo assay; format: functional, cell-based; conditions: HepG2, 48 h
Plasmodium falciparum [15] = test: Antimalarial activity against asexual blood stage Plasmodium falciparum Dd2-F6 assessed as minimum inoculum of resistance at 5 times IC50 measured for 35 days by SYBR Green I dye based flow cytometry; format: functional; conditions: time 35 day
Plasmodium falciparum [16] = test: Antimalarial activity against Plasmodium falciparum Dd2 assessed as reduction in parasite growth incubated for 72 hrs by [3H]-hypoxanthine incorporation assay; format: functional, organism-based
Plasmodium falciparum [17] = test: Antimalarial activity against DSM-265 resistant Plasmodium falciparum Dd2 harboring DHODH C276F mutant assessed as reduction in parasite growth incubated for 72 hrs by [3H]-hypoxanthine incorporation assay; format: functional, organism-based
Plasmodium falciparum [18] = test: Antimalarial activity against MMV006833 resistant Plasmodium falciparum 3D7 harboring START1 N330K mutant assessed as reduction in parasite growth incubated for 72 hrs by LDH assay; format: functional, organism-based; conditions: 3D7, 72 h
Plasmodium falciparum [19] = test: Antimalarial activity against asexual blood stage Plasmodium falciparum Dd2-B2 assessed as reduction in parasite growth measured for 60 days by flow cytometry; format: functional; conditions: Dd2-B2, 1440 h, time 60 day
Plasmodium falciparum [20] = test: Antimalarial activity against KAF-156 resistant Plasmodium falciparum Dd2 harboring CARL I1139K mutant assessed as reduction in parasite growth incubated for 72 hrs by [3H]-hypoxanthine incorporation assay; format: functional, organism-based
Plasmodium falciparum [21] = test: Antimalarial activity against MMV006833 resistant Plasmodium falciparum 3D7 harboring START1 N309K mutant assessed as reduction in parasite growth incubated for 72 hrs by LDH assay; format: functional, organism-based; conditions: 3D7, 72 h
Plasmodium falciparum [22] = test: Antimalarial activity against chloroquine and mefloquine resistant Plasmodium falciparum NF54 assessed as reduction in parasite growth incubated for 72 hrs by [3H]-hypoxanthine incorporation assay; format: functional, organism-based
Plasmodium falciparum [23] = test: Antimalarial activity against chloroquine and mefloquine resistant Plasmodium falciparum RF12 assessed as reduction in parasite growth incubated for 72 hrs by [3H]-hypoxanthine incorporation assay; format: functional, organism-based
Plasmodium falciparum [24] = test: Antimalarial activity against asexual blood stage Plasmodium falciparum Dd2-F6 assessed as minimum inoculum of resistance at 2.2 times IC50 measured for 35 days by SYBR Green I dye based flow cytometry; format: functional; conditions: time 35 day
Plasmodium falciparum [25] = test: Antimalarial activity against atovaquone resistant Plasmodium falciparum TM90-C2B assessed as reduction in parasite growth incubated for 72 hrs by [3H]-hypoxanthine incorporation assay; format: functional, organism-based
Plasmodium falciparum [26] = test: Antimalarial activity against asexual blood stage Plasmodium falciparum Dd2-B2 assessed as reduction in recrudescence measured for 60 days by flow cytometry; format: functional, organism-based; conditions: time 60.0 day
Plasmodium falciparum [27] = test: Antimalarial activity against DDD-107498 resistant Plasmodium falciparum Dd2 harboring eEF2 Y86N mutant assessed as reduction in parasite growth incubated for 72 hrs by [3H]-hypoxanthine incorporation assay; format: functional, organism-based
Plasmodium falciparum [28] = test: Antimalarial activity against chloroquine and mefloquine resistant Plasmodium falciparum K1 assessed as reduction in parasite growth incubated for 72 hrs by [3H]-hypoxanthine incorporation assay; format: functional, organism-based
Plasmodium falciparum [29] = test: Antimalarial activity against chloroquine and mefloquine resistant Plasmodium falciparum 7G8 assessed as reduction in parasite growth incubated for 72 hrs by [3H]-hypoxanthine incorporation assay; format: functional, organism-based
Plasmodium falciparum [30] = test: Antimalarial activity against MMV006833 resistant Plasmodium falciparum 3D7 assessed as reduction in parasite growth incubated for 72 hrs by LDH assay; format: functional, organism-based; conditions: 3D7, 72 h
Plasmodium falciparum [31] = test: Antimalarial activity against MMV-048 resistant Plasmodium falciparum Dd2 harboring PI4K S743T mutant assessed as reduction in parasite growth incubated for 72 hrs by [3H]-hypoxanthine incorporation assay; format: functional, organism-based
Plasmodium falciparum [32] = test: Antimalarial activity against ELQ-300 resistant Plasmodium falciparum Dd2 harboring Cyt b I22L mutant assessed as reduction in parasite growth incubated for 72 hrs by [3H]-hypoxanthine incorporation assay; format: functional, organism-based

- Drug uptake [1]: Active
- deltaH (Plasmodium falciparum [3]): -11.6 kcal/mol
- microsomal CLint at 1 µM [4]: > 462 µL/min/mg
- -TdeltaS (Plasmodium falciparum [5]): 0.8 kcal/mol
- solubility kinetic at 2 h [6]: 60 µM (≈ 28.4 µg/mL)
- hepatocyte CLint at 1 µM [7]: 68 µL/min/1e6 cells
- half-life [8]: 5.9 h
- Drug uptake [9]: Active
- logD at 2 h, 7.5 µM [13]: 3.2
- concentration at 0.25 h [14]: ~1200 nM
Structure (SMILES): CC(C)(Nc1ccc(Cl)c(S(=O)(=O)N2CCOCC2)c1)C(=O)Nc1cncc(Cl)c1
- Activity (Plasmodium berghei): inactive
- Kd [2]: 14 nM
- Activity [10]: Non-Toxic
- EC50 (Plasmodium falciparum [11]): 15 nM
- Activity [12]: Non-Toxic
- EC50 (HepG2): > 40000 nM

Structure (SMILES): Cc1cc(Nc2ccc(S(F)(F)(F)(F)F)cc2)n2nc(C(C)(F)F)nc2n1 [DSM-265]
- Activity (Plasmodium falciparum [15]): 1.6 10^6No_unit
- EC50 (Plasmodium falciparum [16]): 24 nM
- EC50 (Plasmodium falciparum [17]): 470 nM

Structure (SMILES): CC(C)(Nc1ccc(Cl)c(S(=O)(=O)N2CCOCC2)c1)C(=O)Nc1ccc(F)c(Cl)c1
- Kd [2]: 10 nM
- EC50 (Plasmodium falciparum [18]): 2200 nM
- EC90 (Plasmodium falciparum [19]): 9.7 nM
- EC50 (Plasmodium falciparum [20]): 1 nM
- EC50 (Plasmodium falciparum [21]): 3200 nM
- EC50 (Plasmodium falciparum [22]): 2 nM
- microsomal CLint at 1 µM [4]: > 462 µL/min/mg
- EC50 (Plasmodium falciparum [23]): 1 nM
- Activity (Plasmodium falciparum [24]): 1.9 10^7No_unit
- solubility kinetic at 2 h [6]: 16 µM (≈ 7.85 µg/mL)
- hepatocyte CLint at 1 µM [7]: > 92 µL/min/1e6 cells
- EC50 (Plasmodium falciparum [25]): 1 nM
- EC50 (Plasmodium falciparum [11]): 5 nM
- Activity (Plasmodium falciparum [26]): inactive
- EC50 (Plasmodium falciparum [27]): 1 nM
- logD at 2 h, 7.5 µM [13]: 3.9
- EC50 (Plasmodium falciparum [16]): 1 nM
- EC50 (Plasmodium falciparum [28]): 2 nM
- EC50 (Plasmodium falciparum [29]): 1 nM
- EC50 (Plasmodium falciparum [30]): 4 nM
- EC50 (HepG2): 31500 nM
- EC50 (Plasmodium falciparum [31]): 1 nM
- EC50 (Plasmodium falciparum [17]): 1 nM
- EC50 (Plasmodium falciparum [32]): 1 nM
